In PubChem BioAssay (NCI):
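Where inhibition never reached the appropriate level, the endpoint shown equals the highest concentration tested. Otherwise, values were interpolated linearly from a five-concentration, 48-hour dose response in 96-well plates. TGI: total growth inhibition.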

What was measured:
Test in all cases: NCI tumour cell line growth inhibition, 48 h
SK-MEL-5 melanoma = test system: SK-MEL-5 melanoma
OVCAR-5 ovarian = test system: OVCAR-5 ovarian
RPMI-8226 leukemia = test system: RPMI-8226 leukemia
SW-620 colon = test system: SW-620 colon
UO-31 renal = test system: UO-31 renal
SK-MEL-2 melanoma = test system: SK-MEL-2 melanoma
COLO 205 colon = test system: COLO 205 colon
EKVX NSCLC = test system: EKVX NSCLC
U251 CNS = test system: U251 CNS
SK-OV-3 ovarian = test system: SK-OV-3 ovarian
HCT-116 colon = test system: HCT-116 colon
786-0 renal = test system: 786-0 renal
SF-539 CNS = test system: SF-539 CNS
IGROV1 ovarian = test system: IGROV1 ovarian
DLD-1 colon = test system: DLD-1 colon
LOX IMVI melanoma = test system: LOX IMVI melanoma
NCI-H23 lung = test system: NCI-H23 lung
SR leukemia = test system: SR leukemia
NCI-H460 lung = test system: NCI-H460 lung
KM12 colon = test system: KM12 colon
OVCAR-3 ovarian = test system: OVCAR-3 ovarian
HOP-92 NSCLC = test system: HOP-92 NSCLC
SNB-78 CNS = test system: SNB-78 CNS
LXFL 529 NSCLC = test system: LXFL 529 NSCLC
XF 498 CNS = test system: XF 498 CNS
UACC-62 melanoma = test system: UACC-62 melanoma
NCI-H522 lung = test system: NCI-H522 lung
SN12C renal = test system: SN12C renal
SNB-19 CNS = test system: SNB-19 CNS
SF-295 CNS = test system: SF-295 CNS
MOLT-4 leukemia = test system: MOLT-4 leukemia
TK-10 renal = test system: TK-10 renal
OVCAR-4 ovarian = test system: OVCAR-4 ovarian
M14 melanoma = test system: M14 melanoma
HT29 colon = test system: HT29 colon
HOP-62 NSCLC = test system: HOP-62 NSCLC
K-562 leukemia = test system: K-562 leukemia
M19-MEL melanoma = test system: M19-MEL melanoma
MALME-3M melanoma = test system: MALME-3M melanoma
DMS 114 small cell lung = test system: DMS 114 small cell lung
HOP-18 NSCLC = test system: HOP-18 NSCLC
CAKI-1 renal = test system: CAKI-1 renal
ACHN renal = test system: ACHN renal
CCRF-CEM leukemia = test system: CCRF-CEM leukemia
OVCAR-8 ovarian = test system: OVCAR-8 ovarian
HL-60(TB) leukemia = test system: HL-60(TB) leukemia
DMS 273 small cell lung = test system: DMS 273 small cell lung
HCT-15 colon = test system: HCT-15 colon
HCC-2998 colon = test system: HCC-2998 colon
SNB-75 CNS = test system: SNB-75 CNS
KM20L2 colon = test system: KM20L2 colon
A549 NSCLC = test system: A549 NSCLC
UACC-257 melanoma = test system: UACC-257 melanoma
SK-MEL-28 melanoma = test system: SK-MEL-28 melanoma
NCI-H226 lung = test system: NCI-H226 lung
RXF 393 renal = test system: RXF 393 renal
SF-268 CNS = test system: SF-268 CNS
RXF-631 renal = test system: RXF-631 renal
A498 renal = test system: A498 renal

Cc1cc2c(=O)cc(-c3ccc(O)cc3)oc2c(C(=O)O)c1C
TGI (SK-MEL-5 melanoma): > 100 µM | TGI (OVCAR-5 ovarian): > 100 µM | TGI (RPMI-8226 leukemia): > 100 µM | TGI (SW-620 colon): > 100 µM | TGI (UO-31 renal): > 100 µM | TGI (SK-MEL-2 melanoma): > 100 µM | TGI (COLO 205 colon): > 100 µM | TGI (EKVX NSCLC): > 100 µM | TGI (U251 CNS): > 100 µM | TGI (SK-OV-3 ovarian): > 100 µM | TGI (HCT-116 colon): > 100 µM | TGI (786-0 renal): > 100 µM | TGI (SF-539 CNS): > 100 µM | TGI (IGROV1 ovarian): > 100 µM | TGI (DLD-1 colon): > 100 µM | TGI (LOX IMVI melanoma): > 100 µM | TGI (NCI-H23 lung): > 100 µM | TGI (SR leukemia): > 100 µM | TGI (NCI-H460 lung): > 100 µM | TGI (KM12 colon): > 100 µM | TGI (OVCAR-3 ovarian): > 100 µM | TGI (HOP-92 NSCLC): > 100 µM | TGI (SNB-78 CNS): > 100 µM | TGI (LXFL 529 NSCLC): > 100 µM | TGI (XF 498 CNS): > 100 µM | TGI (UACC-62 melanoma): > 100 µM | TGI (NCI-H522 lung): > 100 µM | TGI (SN12C renal): > 100 µM | TGI (SNB-19 CNS): > 100 µM | TGI (SF-295 CNS): > 100 µM | TGI (MOLT-4 leukemia): > 100 µM | TGI (TK-10 renal): > 100 µM | TGI (OVCAR-4 ovarian): > 100 µM | TGI (M14 melanoma): > 100 µM | TGI (HT29 colon): > 100 µM | TGI (HOP-62 NSCLC): > 100 µM | TGI (K-562 leukemia): > 100 µM | TGI (M19-MEL melanoma): > 100 µM | TGI (MALME-3M melanoma): > 100 µM | TGI (DMS 114 small cell lung): > 100 µM | TGI (HOP-18 NSCLC): > 100 µM | TGI (CAKI-1 renal): 69.2 µM | TGI (ACHN renal): > 100 µM | TGI (CCRF-CEM leukemia): > 100 µM | TGI (OVCAR-8 ovarian): > 100 µM | TGI (HL-60(TB) leukemia): > 100 µM | TGI (DMS 273 small cell lung): > 100 µM | TGI (HCT-15 colon): > 100 µM | TGI (HCC-2998 colon): > 100 µM | TGI (SNB-75 CNS): > 100 µM | TGI (KM20L2 colon): > 100 µM | TGI (A549 NSCLC): > 100 µM | TGI (UACC-257 melanoma): > 100 µM | TGI (SK-MEL-28 melanoma): > 100 µM | TGI (NCI-H226 lung): > 100 µM

CC(=O)Nc1ccc(S(=O)(=O)N/N=C/c2cc(I)cc([N+](=O)[O-])c2O)cc1
TGI (SK-MEL-5 melanoma): > 100 µM | TGI (OVCAR-5 ovarian): > 100 µM | TGI (RPMI-8226 leukemia): > 100 µM | TGI (SW-620 colon): > 100 µM | TGI (UO-31 renal): > 100 µM | TGI (SK-MEL-2 melanoma): > 100 µM | TGI (RXF 393 renal): 85.2 µM | TGI (COLO 205 colon): > 100 µM | TGI (SF-268 CNS): > 100 µM | TGI (EKVX NSCLC): > 100 µM | TGI (U251 CNS): > 100 µM | TGI (SK-OV-3 ovarian): > 100 µM | TGI (786-0 renal): > 100 µM | TGI (IGROV1 ovarian): > 100 µM | TGI (DLD-1 colon): > 100 µM | TGI (LOX IMVI melanoma): > 100 µM | TGI (NCI-H23 lung): 85 µM | TGI (NCI-H460 lung): > 100 µM | TGI (KM12 colon): > 100 µM | TGI (OVCAR-3 ovarian): > 100 µM | TGI (SNB-78 CNS): > 100 µM | TGI (XF 498 CNS): 74.6 µM | TGI (UACC-62 melanoma): 90.9 µM | TGI (RXF-631 renal): > 100 µM | TGI (SN12C renal): > 100 µM | TGI (SNB-19 CNS): > 100 µM | TGI (SF-295 CNS): > 100 µM | TGI (MOLT-4 leukemia): > 100 µM | TGI (TK-10 renal): > 100 µM | TGI (OVCAR-4 ovarian): > 100 µM | TGI (M14 melanoma): > 100 µM | TGI (HT29 colon): > 100 µM | TGI (K-562 leukemia): > 100 µM | TGI (M19-MEL melanoma): > 100 µM | TGI (MALME-3M melanoma): > 100 µM | TGI (DMS 114 small cell lung): > 100 µM | TGI (HOP-18 NSCLC): 96.5 µM | TGI (CAKI-1 renal): > 100 µM | TGI (ACHN renal): > 100 µM | TGI (CCRF-CEM leukemia): > 100 µM | TGI (A498 renal): > 100 µM | TGI (OVCAR-8 ovarian): > 100 µM | TGI (HL-60(TB) leukemia): > 100 µM | TGI (DMS 273 small cell lung): > 100 µM | TGI (HCT-15 colon): > 100 µM | TGI (HCC-2998 colon): > 100 µM | TGI (SNB-75 CNS): 91.6 µM | TGI (KM20L2 colon): > 100 µM | TGI (A549 NSCLC): > 100 µM | TGI (UACC-257 melanoma): > 100 µM | TGI (SK-MEL-28 melanoma): 98.7 µM | TGI (NCI-H226 lung): > 100 µM

CC1(C)CCCC2(C)[C@@H]1CC[C@]13C[C@](C)(CC[C@@H]21)[C@@H]3CO (some centres undefined)
TGI (SK-MEL-5 melanoma): > 100 µM | TGI (OVCAR-5 ovarian): > 100 µM | TGI (RPMI-8226 leukemia): > 100 µM | TGI (SW-620 colon): > 100 µM | TGI (UO-31 renal): > 100 µM | TGI (RXF 393 renal): > 100 µM | TGI (COLO 205 colon): > 100 µM | TGI (SF-268 CNS): > 100 µM | TGI (U251 CNS): > 100 µM | TGI (SK-OV-3 ovarian): > 100 µM | TGI (HCT-116 colon): > 100 µM | TGI (SF-539 CNS): > 100 µM | TGI (IGROV1 ovarian): > 100 µM | TGI (DLD-1 colon): > 100 µM | TGI (LOX IMVI melanoma): > 100 µM | TGI (NCI-H23 lung): > 100 µM | TGI (NCI-H460 lung): > 100 µM | TGI (KM12 colon): > 100 µM | TGI (OVCAR-3 ovarian): > 100 µM | TGI (HOP-92 NSCLC): > 100 µM | TGI (SNB-78 CNS): > 100 µM | TGI (LXFL 529 NSCLC): > 100 µM | TGI (XF 498 CNS): > 100 µM | TGI (UACC-62 melanoma): > 100 µM | TGI (NCI-H522 lung): > 100 µM | TGI (RXF-631 renal): > 100 µM | TGI (SN12C renal): > 100 µM | TGI (SNB-19 CNS): > 100 µM | TGI (SF-295 CNS): > 100 µM | TGI (MOLT-4 leukemia): > 100 µM | TGI (TK-10 renal): > 100 µM | TGI (OVCAR-4 ovarian): > 100 µM | TGI (M14 melanoma): > 100 µM | TGI (HT29 colon): > 100 µM | TGI (HOP-62 NSCLC): > 100 µM | TGI (K-562 leukemia): > 100 µM | TGI (M19-MEL melanoma): > 100 µM | TGI (MALME-3M melanoma): > 100 µM | TGI (DMS 114 small cell lung): > 100 µM | TGI (CAKI-1 renal): > 100 µM | TGI (ACHN renal): > 100 µM | TGI (CCRF-CEM leukemia): > 100 µM | TGI (HL-60(TB) leukemia): > 100 µM | TGI (DMS 273 small cell lung): > 100 µM | TGI (HCT-15 colon): > 100 µM | TGI (HCC-2998 colon): > 100 µM | TGI (SNB-75 CNS): > 100 µM | TGI (KM20L2 colon): > 100 µM | TGI (A549 NSCLC): > 100 µM | TGI (UACC-257 melanoma): > 100 µM | TGI (SK-MEL-28 melanoma): > 100 µM | TGI (NCI-H226 lung): > 100 µM
